Source: ChEMBL document CHEMBL1133464, “Ligands for glutamate receptors: design and therapeutic prospects” (J Med Chem, 2000)

Legend:
[1] = target: Metabotropic glutamate receptor 5 (Homo sapiens, UniProt P41594); assay: Agonist potency against cloned metabotropic glutamate receptor 5; assay type: functional
[2] = target: Metabotropic glutamate receptor 4 (Homo sapiens, UniProt Q14833); assay: Agonist potency against cloned human Metabotropic glutamate receptor 4 (mGluR-4); assay type: functional
Sequence of Metabotropic glutamate receptor 4 (Q14833 whole entry): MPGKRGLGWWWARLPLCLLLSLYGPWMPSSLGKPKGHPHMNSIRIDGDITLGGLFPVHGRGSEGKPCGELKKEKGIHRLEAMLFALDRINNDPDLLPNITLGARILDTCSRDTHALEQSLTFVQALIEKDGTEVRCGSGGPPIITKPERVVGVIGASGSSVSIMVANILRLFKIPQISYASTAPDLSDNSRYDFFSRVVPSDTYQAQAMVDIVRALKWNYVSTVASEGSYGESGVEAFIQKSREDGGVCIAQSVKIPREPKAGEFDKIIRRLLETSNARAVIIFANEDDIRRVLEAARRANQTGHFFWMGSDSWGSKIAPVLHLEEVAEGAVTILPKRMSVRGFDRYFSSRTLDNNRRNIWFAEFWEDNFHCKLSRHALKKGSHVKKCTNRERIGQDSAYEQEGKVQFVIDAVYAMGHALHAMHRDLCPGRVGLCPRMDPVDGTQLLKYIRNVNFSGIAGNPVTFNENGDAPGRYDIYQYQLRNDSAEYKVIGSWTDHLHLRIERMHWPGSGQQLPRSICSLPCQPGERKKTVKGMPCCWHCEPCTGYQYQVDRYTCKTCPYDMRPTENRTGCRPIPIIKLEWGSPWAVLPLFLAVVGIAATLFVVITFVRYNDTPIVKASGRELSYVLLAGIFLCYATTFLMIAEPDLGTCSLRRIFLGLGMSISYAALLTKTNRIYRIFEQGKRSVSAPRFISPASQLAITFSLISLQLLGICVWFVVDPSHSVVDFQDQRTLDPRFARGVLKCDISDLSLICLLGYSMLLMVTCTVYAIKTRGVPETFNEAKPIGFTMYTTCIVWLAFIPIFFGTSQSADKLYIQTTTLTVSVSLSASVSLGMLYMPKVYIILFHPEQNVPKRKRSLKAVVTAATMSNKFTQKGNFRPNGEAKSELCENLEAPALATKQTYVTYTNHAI

[3] = target: Metabotropic glutamate receptor 2 (Homo sapiens, UniProt Q14416); assay: Partial agonist potency against cloned Metabotropic glutamate receptor 2; assay type: functional
Sequence of Metabotropic glutamate receptor 2 (Q14416 whole entry): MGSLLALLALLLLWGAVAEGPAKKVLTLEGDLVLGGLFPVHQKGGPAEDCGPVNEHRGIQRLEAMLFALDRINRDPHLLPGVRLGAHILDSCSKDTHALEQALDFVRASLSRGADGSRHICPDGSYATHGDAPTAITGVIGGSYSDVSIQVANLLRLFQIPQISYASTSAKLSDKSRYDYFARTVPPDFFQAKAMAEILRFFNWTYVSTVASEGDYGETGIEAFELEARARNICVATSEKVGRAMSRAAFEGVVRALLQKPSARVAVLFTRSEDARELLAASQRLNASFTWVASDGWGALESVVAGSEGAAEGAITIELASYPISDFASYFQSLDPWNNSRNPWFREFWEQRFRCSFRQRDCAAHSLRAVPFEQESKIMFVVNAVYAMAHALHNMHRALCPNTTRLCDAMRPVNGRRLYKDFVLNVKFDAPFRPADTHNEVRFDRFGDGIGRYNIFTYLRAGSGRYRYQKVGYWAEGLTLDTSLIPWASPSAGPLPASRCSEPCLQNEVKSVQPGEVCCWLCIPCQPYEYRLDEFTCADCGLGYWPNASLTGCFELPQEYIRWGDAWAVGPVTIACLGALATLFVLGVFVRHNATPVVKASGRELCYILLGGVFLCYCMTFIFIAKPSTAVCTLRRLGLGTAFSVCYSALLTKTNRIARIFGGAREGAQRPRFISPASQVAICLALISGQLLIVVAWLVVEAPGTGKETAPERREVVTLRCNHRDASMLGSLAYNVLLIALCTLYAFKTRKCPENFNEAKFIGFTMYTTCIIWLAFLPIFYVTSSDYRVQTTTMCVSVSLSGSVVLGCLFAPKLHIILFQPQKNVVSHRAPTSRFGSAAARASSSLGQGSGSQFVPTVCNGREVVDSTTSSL

[4] = target: Metabotropic glutamate receptor 1 (Homo sapiens, UniProt Q13255); assay: Agonist potency against cloned human metabotropic glutamate receptor 1; assay type: functional
Sequence of Metabotropic glutamate receptor 1 (Q13255 whole entry): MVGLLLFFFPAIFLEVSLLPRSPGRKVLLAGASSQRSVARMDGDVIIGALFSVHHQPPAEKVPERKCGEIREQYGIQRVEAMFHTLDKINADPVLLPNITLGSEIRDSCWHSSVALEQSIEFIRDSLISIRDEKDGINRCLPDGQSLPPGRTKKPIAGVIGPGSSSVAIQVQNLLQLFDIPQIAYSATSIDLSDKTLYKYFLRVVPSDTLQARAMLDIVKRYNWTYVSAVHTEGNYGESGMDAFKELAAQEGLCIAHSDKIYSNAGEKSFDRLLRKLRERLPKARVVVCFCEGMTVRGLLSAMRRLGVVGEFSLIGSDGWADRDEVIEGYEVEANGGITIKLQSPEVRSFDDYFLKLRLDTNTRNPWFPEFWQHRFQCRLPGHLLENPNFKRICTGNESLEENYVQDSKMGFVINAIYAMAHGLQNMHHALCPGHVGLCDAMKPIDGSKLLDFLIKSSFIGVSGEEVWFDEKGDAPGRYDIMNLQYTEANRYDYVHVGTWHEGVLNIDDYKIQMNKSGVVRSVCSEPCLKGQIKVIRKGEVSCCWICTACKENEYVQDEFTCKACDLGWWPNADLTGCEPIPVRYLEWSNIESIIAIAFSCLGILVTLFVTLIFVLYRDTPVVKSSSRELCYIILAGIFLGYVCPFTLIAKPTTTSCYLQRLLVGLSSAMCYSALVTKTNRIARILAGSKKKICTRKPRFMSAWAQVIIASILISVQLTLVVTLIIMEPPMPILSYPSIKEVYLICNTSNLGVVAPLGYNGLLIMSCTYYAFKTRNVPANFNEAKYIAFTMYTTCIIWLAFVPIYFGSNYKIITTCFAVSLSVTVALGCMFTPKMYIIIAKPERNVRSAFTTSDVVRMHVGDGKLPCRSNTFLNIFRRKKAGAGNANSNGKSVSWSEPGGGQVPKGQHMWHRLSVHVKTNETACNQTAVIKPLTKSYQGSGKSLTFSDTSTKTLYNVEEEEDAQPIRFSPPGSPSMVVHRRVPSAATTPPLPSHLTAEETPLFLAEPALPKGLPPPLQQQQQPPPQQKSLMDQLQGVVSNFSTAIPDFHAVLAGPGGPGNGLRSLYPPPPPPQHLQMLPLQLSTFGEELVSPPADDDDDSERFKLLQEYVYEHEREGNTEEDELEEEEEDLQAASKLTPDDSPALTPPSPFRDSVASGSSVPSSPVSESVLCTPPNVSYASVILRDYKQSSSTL

[5] = (§1) Effective concentration against NR1/NR2A receptor
[6] = as §1; remark: listed apart in the source
[7] = as §1; remark: listed apart in the source
[8] = as §1; remark: listed apart in the source

Sequence of Metabotropic glutamate receptor 5 (P41594 whole entry): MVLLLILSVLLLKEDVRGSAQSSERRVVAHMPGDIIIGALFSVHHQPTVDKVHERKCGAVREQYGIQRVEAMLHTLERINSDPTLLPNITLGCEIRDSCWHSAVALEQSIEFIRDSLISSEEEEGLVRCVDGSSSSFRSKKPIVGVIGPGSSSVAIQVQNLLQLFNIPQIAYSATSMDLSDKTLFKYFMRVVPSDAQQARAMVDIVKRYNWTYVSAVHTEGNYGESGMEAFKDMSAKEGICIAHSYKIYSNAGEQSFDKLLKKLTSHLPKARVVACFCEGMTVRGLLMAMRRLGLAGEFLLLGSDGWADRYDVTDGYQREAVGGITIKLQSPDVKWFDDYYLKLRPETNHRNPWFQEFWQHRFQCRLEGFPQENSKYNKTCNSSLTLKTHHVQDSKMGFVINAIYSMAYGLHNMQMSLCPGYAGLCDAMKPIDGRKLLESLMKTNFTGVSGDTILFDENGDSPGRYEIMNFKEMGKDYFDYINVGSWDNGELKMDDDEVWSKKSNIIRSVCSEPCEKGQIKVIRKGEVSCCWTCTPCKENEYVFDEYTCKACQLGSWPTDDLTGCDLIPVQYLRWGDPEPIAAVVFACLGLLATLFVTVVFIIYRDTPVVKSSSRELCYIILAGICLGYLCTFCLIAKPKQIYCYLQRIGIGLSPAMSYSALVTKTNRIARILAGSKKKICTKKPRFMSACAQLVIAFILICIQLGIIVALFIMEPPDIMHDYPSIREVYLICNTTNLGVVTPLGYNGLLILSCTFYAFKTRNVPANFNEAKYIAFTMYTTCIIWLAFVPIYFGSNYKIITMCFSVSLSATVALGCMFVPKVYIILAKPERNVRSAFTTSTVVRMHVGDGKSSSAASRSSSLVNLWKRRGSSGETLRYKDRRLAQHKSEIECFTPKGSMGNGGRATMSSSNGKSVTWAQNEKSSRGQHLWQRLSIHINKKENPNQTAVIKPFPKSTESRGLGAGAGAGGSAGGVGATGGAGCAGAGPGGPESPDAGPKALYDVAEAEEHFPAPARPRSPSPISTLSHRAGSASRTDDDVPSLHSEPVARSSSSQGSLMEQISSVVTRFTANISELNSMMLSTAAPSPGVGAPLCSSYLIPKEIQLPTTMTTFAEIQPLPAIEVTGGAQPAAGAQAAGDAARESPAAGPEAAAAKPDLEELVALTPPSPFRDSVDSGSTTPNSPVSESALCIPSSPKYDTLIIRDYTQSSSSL

| Ki [1] [µM] | Ki [2] [µM] | Ki [3] [µM] | Ki [4] [µM] | EC50 [5] [µM] | EC50 [6] [µM] | EC50 [7] [µM] | EC50 [8] [µM] | SMILES |
| --- | --- | --- | --- | --- | --- | --- | --- | --- |
| > 1000 | > 1000 | 55 | 232 |  |  |  |  | N[C@H](C(=O)O)C12C3C4C1C1C2C3C41C(=O)O (stereo partly drawn) |
|  |  |  |  | 36 | 20 | 22 | 9 | CN[C@H](CC(=O)O)C(=O)O [N-METHYL-D-ASPARTIC ACID (NMDA)] |
